Data set [1] deals with T1, 17β-HSD10 (Homo sapiens, UniProt Q99714).
T1 sequence (Q99714 1-261): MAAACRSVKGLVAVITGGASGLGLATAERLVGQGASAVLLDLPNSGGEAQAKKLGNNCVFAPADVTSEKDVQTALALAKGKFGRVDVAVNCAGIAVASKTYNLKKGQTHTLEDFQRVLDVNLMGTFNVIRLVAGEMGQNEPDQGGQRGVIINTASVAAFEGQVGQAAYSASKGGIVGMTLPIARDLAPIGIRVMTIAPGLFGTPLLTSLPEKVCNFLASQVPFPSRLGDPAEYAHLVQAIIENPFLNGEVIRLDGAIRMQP
Briefly: recombinant 17β-HSD10 enzyme activity assay (primary NADH screen and dose response). As to conditions: relative remaining activity, 25 μM compound, six independent measurements ± SEM; read-out: 17β-HSD10 activity in the presence of compound at 25 μM (Primary Screen). More on the design: made in house. The format is biochemical. The text has this:
In order to reduce attrition rates and improve assay reproducibility we have developed a high throughput screening (HTS) pipeline (Figure 3 [19]). In brief, compounds are screened in the recombinant 17β-HSD10 enzyme activity assay (Table 5, Figure 4). Our best previously published compounds have set the threshold of 40% remaining 17β-HSD10 activity as a minimum standard and if compounds can better this threshold, they are further screened using our orthogonal counter assays, dose response assays and kinetic assessment (Table 5). Finally, if passing these criteria with favourable characteristics, the compounds progress into cellular evaluation through cytotoxicity testing and measuring 17β-HSD10 activity within cells (Table 6).
Full results for the primary nicotinamide adenine dinucleotide (NADH) assay screens are shown in Figure 4 including our four best previously published compounds for comparison (Figure 1).
Purification of 17β-HSD10 protein was performed as described in our previous work.
Compound screening, dose response and mechanism of inhibition experiments were performed as described in Hroch et al. 2016, with the exceptions being an alteration in assay buffer (10 mM Tris HCl (pH 7.4), 150 mM NaCl, 1 mM DTT, 0.005% Tween20, 0.01% BSA) and a change in temperature to 25 °C, to improve enzyme stability and assay reliability as compound solubility improved, as outlined in our previous work.

Each structure is given as a SMILES string.

What is called melting point is the temperature of the solid-liquid transition. Turning to `COc1ccc2nc(NC(=O)Nc3ccc(O)c(C)c3)sc2c1` [Compound 2, 1-(4-Hydroxy-3-methylphenyl)-3-(6-methoxybenzo[d]thiazol-2-yl)urea], the melting point lay in the range of 262 to 263 °C. Further, in data set [1], the remaining activity at 25 µM was determined as 52.2 ± 3.67%.
The like results for `COc1ccc2nc(NC(=O)Nc3ccc(O)c(C(C)(C)C)c3)sc2c1` [Compound 3, 1-(3-(Tert-butyl)-4-hydroxyphenyl)-3-(6-methoxybenzo[d]thiazol-2-yl)urea] were, in that order, 259 to 260 °C and 41 ± 0.45%.
With `COc1ccc2nc(NC(=O)Nc3ccc(O)c(C#N)c3)sc2c1` [Compound 4, 1-(3-Cyano-4-hydroxyphenyl)-3-(6-methoxybenzo[d]thiazol-2-yl)urea], the melting point fell in the range of 277 to 279 °C. Besides, the remaining activity at 25 µM in data set [1] turned out to be 96.5 ± 2.03%.
For `COc1ccc2nc(NC(=O)Nc3ccc(O)c(N)c3)sc2c1` [Compound 7, 1-(3-Amino-4-hydroxyphenyl)-3-(6-methoxybenzo[d]thiazol-2-yl)urea], in that order: 180 to 181 °C and 82.5 ± 2.39%.
On to `COc1ccc2nc(NC(=O)Nc3ccc(O)nc3)sc2c1` [Compound 8, 1-(6-Hydroxypyridin-3-yl)-3-(6-methoxybenzo[d]thiazol-2-yl)urea], for which the melting point was 272 to 273 °C. In addition, in data set [1], the remaining activity at 25 µM was 63.3 ± 3.42%.
On to `COc1ccc2nc(NC(=O)Nc3ccc(N)cc3)sc2c1` [Compound 9, 1-(4-Aminophenyl)-3-(6-methoxybenzo[d]thiazol-2-yl)urea], for which the melting point was 304 to 306 °C (dec.). Also, the remaining activity at 25 µM in data set [1] amounted to 105 ± 3.17%.
Regarding `COc1ccc2nc(NC(=O)Nc3ccc(N)c(Cl)c3)sc2c1` [Compound 10, 1-(4-Amino-3-chlorophenyl)-3-(6-methoxybenzo[d]thiazol-2-yl)urea], the melting point was 310 to 311 °C (dec.). In addition, the remaining activity at 25 µM in data set [1] worked out at 117 ± 3.94%.
As to `COc1ccc2nc(NC(=O)Nc3ccc(CO)c(Cl)c3)sc2c1` [Compound 11, 1-(3-Chloro-4-(hydroxymethyl)phenyl)-3-(6-methoxybenzo[d]thiazol-2-yl)urea], the melting point is 229 to 230 °C. Also, the remaining activity at 25 µM in data set [1] was 110 ± 3.8%.
Compound `Oc1ccc(Nc2nc3ccc(Cl)cc3s2)cc1Cl` [Compound 23, 2-Chloro-4-((6-chlorobenzo[d]thiazol-2-yl)amino)phenol] yielded a melting point of 213 to 214.5 °C. Besides, the remaining activity at 25 µM in data set [1] worked out at 120 ± 13.5%.
Regarding `COc1ccc2nc(NC(=O)c3ccc(O)c(Cl)c3)sc2c1` [Compound 26], the remaining activity at 25 µM in data set [1] came to 105 ± 4.99%.
Compound `COc1ccc2nc(NC(=O)NCc3ccc(O)c(Cl)c3)sc2c1` [Compound 28, 1-(3-Chloro-4-hydroxybenzyl)-3-(6-methoxybenzo[d]thiazol-2-yl)urea] yielded a melting point of 249 to 251 °C. Moreover, the remaining activity at 25 µM in data set [1] came out at 101 ± 4.6%.
The compound `COc1ccc2nc(NC(=O)NCc3ccc(O)c(O)c3)sc2c1` [Compound 29, 1-(3,4-Dihydroxybenzyl)-3-(6-methoxybenzo[d]thiazol-2-yl)urea] yielded a melting point of 141.5 to 142 °C. Further, the remaining activity at 25 µM in data set [1] is 63.5 ± 2.58%.
Consider `COc1ccc2nc(NC(c3ccc(F)cc3)P(=O)(OC)OC)sc2c1` (stereo not drawn) [Compound 34, Dimethyl ((4-fluorophenyl)((6-methoxybenzo[d]thiazol-2-yl)amino)methyl) phosphonate, reference compound], for which the remaining activity at 25 µM in data set [1] turned out to be 95.4 ± 1.16%.
The same measure, in the same setting: under `COc1ccc2nc(NC(c3ccc(O)cc3)P(=O)(OC)OC)sc2c1` (stereo not drawn) [Compound 35, Dimethyl ((4-hydroxyphenyl)((6-methoxybenzo[d]thiazol-2-yl)amino)methyl) phosphonate, reference compound] stands 96.6 ± 1.35%; under `COC(=O)c1cc(C(Nc2nc3ccc(OC)cc3s2)P(=O)(OC)OC)ccc1O` (stereo not drawn) [Compound 36, Methyl 5-((dimethoxyphosphoryl)((6-methoxybenzo[d]thiazol-2-yl)amino)methyl)-2-hydroxybenzoate, reference compound], 95.9 ± 2.09%.
The compound `COc1ccc2nc(NC(c3ccc(O)c(Cl)c3)P(=O)(OC)OC)sc2c1` (stereo not drawn) [Compound 37, Dimethyl ((3-chloro-4-hydroxyphenyl)((6-methoxybenzo[d]thiazol-2-yl)amino)methyl) phosphonate] displayed a melting point of 198 to 199 °C. For the same compound, the remaining activity at 25 µM in data set [1] was determined as 97.83 ± 0.88%.
In the case of `CN(C(=O)Nc1ccc(O)c(Cl)c1)c1nc2ccccc2s1` [Compound 41, 1-(Benzo[d]thiazol-2-yl)-3-(3-chloro-4-hydroxyphenyl)-1-methylurea], the melting point lay within 171 to 172 °C. Further, the remaining activity at 25 µM in data set [1] came to 106 ± 20.9%.
Compound `CN(C(=O)Nc1nc2ccccc2s1)c1ccc(O)c(Cl)c1` [Compound 45, 3-(Benzo[d]thiazol-2-yl)-1-(3-chloro-4-hydroxyphenyl)-1-methylurea] registered a melting point of 139 to 141 °C. Further, the remaining activity at 25 µM in data set [1] is 77.3 ± 1.43%.
The like results for `COc1ccc2nc(NC(=O)N(C)c3ccc(O)c(Cl)c3)sc2c1` [Compound 46, 1-(3-Chloro-4-hydroxyphenyl)-3-(6-methoxybenzo[d]thiazol-2-yl)-1-methylurea] were, in that order, 220 °C (dec.) and 97.8 ± 1.32%.
The like results for `CN(C(=O)N(C)c1nc2ccccc2s1)c1ccc(O)c(Cl)c1` [Compound 49, 1-(Benzo[d]thiazol-2-yl)-3-(3-chloro-4-hydroxyphenyl)-1,3-dimethylurea] were, in that order, 227 to 228.5 °C and 105 ± 2.21%.
The like results for `O=C(Nc1ccc(O)c(Cl)c1)Nc1nc2c(s1)CCCC2` [Compound 71, 1-(3-Chloro-4-hydroxyphenyl)-3-(4,5,6,7-tetrahydrobenzo[d]thiazol-2-yl)urea] were, in that order, 258 to 260 °C and 55.8 ± 1.54%.
With `O=C(Nc1ccc(O)c(Cl)c1)NC1Cc2ccccc2C1` [Compound 72, 1-(3-Chloro-4-hydroxyphenyl)-3-(2,3-dihydro-1H-inden-2-yl)urea], the melting point was 203 to 205 °C. Besides, in data set [1], the remaining activity at 25 µM is 79.2 ± 2.56%.
As to `O=C(Nc1ccc(O)c(Cl)c1)Nc1nc(-c2ccc(Cl)cc2)cs1` [Compound 73, 1-(3-Chloro-4-hydroxyphenyl)-3-(4-(4-chlorophenyl)thiazol-2-yl)urea], the melting point was in the range of 206 to 208 °C. Also, in data set [1], the remaining activity at 25 µM was 102 ± 3.65%.
`O=C(Nc1ccc(O)c(Cl)c1)Nc1nccs1` [Compound 74, 1-(3-Chloro-4-hydroxyphenyl)-3-(thiazol-2-yl)urea] had a melting point of 220 to 222 °C. Further, in data set [1], the remaining activity at 25 µM worked out at 74.5 ± 0.63%.
Turning to `COc1ccc(CCNC(=O)Nc2ccc(O)c(Cl)c2)cc1` [Compound 75, 1-(3-Chloro-4-hydroxyphenyl)-3-(4-methoxyphenethyl)urea], the melting point was 161.5 to 163.5 °C. In addition, in data set [1], the remaining activity at 25 µM was 73.3 ± 4.33%.
The compound `O=C(Nc1ccc(O)c(Cl)c1)Nc1ccc2ncsc2c1` [Compound 76, 1-(Benzo[d]thiazol-6-yl)-3-(3-chloro-4-hydroxyphenyl)urea] displayed a melting point of 224 to 226 °C. Also, in data set [1], the remaining activity at 25 µM worked out at 43.8 ± 0.77%.

For the origin of these results see publication PMC6696238, “Novel Benzothiazole-Based Ureas as 17β-HSD10 Inhibitors, A Potential Alzheimer’s Disease Treatment” (Molecules, 2019).
